Experiments:
PCSK9 [1] = test: Heparin-sepharose binding assay (free PCSK9 by ELISA); set-up: species or system human; conditions: 500-200 μg/ml, PCSK9 1 μg/ml, over night 4° C.
Description: Compound (X) inhibition of PCSK9 binding to Heparin/Heparan sulfate was tested in a Heparin-sepharose binding assay. Heparin-sepharose beads (2 μl) were incubated with PCSK9 (1 μg/ml) with increasing concentrations of compound (X) (0-500 μg/ml) in a total volume of 150 μl 10 mM NaH2PO4. After over night rotation at 4° C., beads were pelleted and the concentration of non-precipitated PCSK9 (free PCSK9) in supernatant was evaluated by ELISA. The concentration of free PCSK9 in each sample was normalised to the PCSK9 level in a sample without Heparin-sepharose beads (input control). As positive control was included a sample with soluble heparin (5 mg/ml) (FIG. 16 A).
Sucrose octasulfate (FIG. 21A) inhibition of PCSK9 binding to Heparin/Heparan sulfate was tested in a Heparin-sepharose binding assay. Heparin-sepharose beads (2 μl) were incubated with PCSK9 (1 μg/ml) and increasing concentrations of sucrose octasulfate (0-500 μg/ml) in a total volume of 150 μl 10 mM NaH2PO4. After over night rotation at 4° C., beads were pelleted and the concentration of non-precipitated PCSK9 (free PCSK9) in supernatant was evaluated by ELISA). Percent free PCSK9 was calculated with respect to the PCSK9 concentration in a sample without Heparin-sepharose beads (input control) (FIG. 21B).

liver LDLR = test: Liver LDLR levels in mice after intravenous PCSK9 injection (Western blot); assay type: in vivo; conditions: inhibitor i.v. 60 min prior PCSK9 (10 μg); compound (X) 0.13 mg/kg, Evolocumab 8 mg/kg; PCSK9 without inhibitor: 50% decrease
Description: To test the effect of enzymatic removal of heparan sulfate GAGs on PCSK9 activity in vivo 10-12 week-old male BALB6/cJRj mice were infused with heparinase I (30 U) administered through a tail vein catheter 5 min prior injection of PCSK9 (10 μg). In control mice the heparinase injection and/or the PCSK9 injection were replaced with an injection of 0.9% saline. During heparinase infusion, mice were lightly anaesthetized with isoflurane continuously administered through a mask.
Mice (BALB6/cJRj) were subjected to a single intravenous administration (tail vein) of 10 μg human recombinant PCSK9 alone or in combination with heparin (50 U). One hour post injection mice were sacrificed and liver tissues were collected.
Mice (BALB6/cJRj) were subjected to a single intravenous (tail vein) administration of 3.2 μg compound (X) 60 minutes prior injection with PCSK9 (10 μg). PCSK9 induced degradation of liver LDLR was assessed 60 min post PCSK9 injection by Western blotting and quantified by densitometry (FIG. 16 C). Control mice were injected with NaCl or control inhibitor Evolocumab (200 μg), commercially available PCSK9 inhibitory monoclonal antibody (Amgen). LDLR levels were calculated with respect to LDLR level in mice injected with NaCl alone.

LDLR in HepG2 cells = test: LDLR levels in HepG2 cells by Western blotting and densitometry; assay type: cell-based, human; conditions: 0-200 μg/ml, 24 h
Description: In the heparin mimetic class of modified polysaccharides compounds dextran sulfate (FIG. 9 A-B) and pentosan (FIG. 9 D-E) were tested in a HepG2 based in vitro cell assay. After overnight incubation LDLR levels were evaluated by Western blotting showing a concentration dependent increase of LDLR upon treatment with dextran sulfate (0-200 μg/ml) with up to 3-fold up regulation of LDLR.
Control cells were incubated without additives (negative control) or 500 μg/ml heparin (positive control). LDLR levels were calculated with respect to the level found in lysate of HepG2 cells incubated without additives.
HepG2 cells were incubated with 0-200 μg/ml of heterogeneously sulfated hexamer or 18-mer oligosaccharides containing on average 1,3 sulfates per disaccharide. After over night incubation cells were harvested and the cellular level of LDLR was analyzed by Western blotting (FIG. 17 A) and quantified by densitometry (FIG. 17 B).

PCSK9 [2] = test: BIACORE interference assay, PCSK9 binding to heparin-albumin sensor chip; set-up: species or system human; conditions: 100 nM PCSK9 preincubated with 0 nM-10 μM compound; read-out: estimated IC50, inhibition of PCSK9 binding to heparin-albumin sensor chip
Description: BIACORE analysis using sensor chips coupled with either albumin (Sigma A4503) or heparin-albumin (Sigma H0403) were used to evaluate the interaction between PCSK9 and heparin. […] An interference assay using BIACORE analysis was implemented to assess the binding between compound (X) and PCSK9. Solutions of 100 nM PCSK9 was incubated with increasing concentrations of compound (X) (0 nM, 10 nM, 100 nM, 1 μM and 10 μM), the solutions were then infused over the sensor chip coupled with heparin-albumin.

inhibition of PCSK9 interaction with Heparin-sepharose (PCSK9 [1]): completely inhibited
IC50 (PCSK9 [2]): ~50 nM
SMILES: CC(C)CCC[C@@H](C)[C@H]1CC[C@H]2[C@@H]3CC[C@H]4C[C@@H](O[C@@H]5O[C@H](COS(=O)(=O)[O-])[C@@H](O[C@H]6O[C@H](COS(=O)(=O)[O-])[C@@H](O[C@H]7O[C@H](COS(=O)(=O)[O-])[C@@H](O[C@H]8O[C@H](COS(=O)(=O)[O-])[C@@H](OS(=O)(=O)[O-])[C@H](OS(=O)(=O)[O-])[C@H]8OS(=O)(=O)[O-])[C@H](OS(=O)(=O)[O-])[C@H]7OS(=O)(=O)[O-])[C@H](OS(=O)(=O)[O-])[C@H]6OS(=O)(=O)[O-])[C@H](OS(=O)(=O)[O-])[C@H]5OS(=O)(=O)[O-])CC[C@]4(C)[C@H]3CC[C@]12C.[Na+].[Na+].[Na+].[Na+].[Na+].[Na+].[Na+].[Na+].[Na+].[Na+].[Na+].[Na+].[Na+] [compound (X), 3β-cholestanyl 2,3,4,6-tetra-O-sulfo-α-D-glucopyranosyl-(1→4)-2,3,6-tri-O-sulfo-α-D-glucopyranosyl-(1→4)-2,3,6-tri-O-sulfo-α-Dglucopyranosyl-(1→4)-2,3,6-tri-O-sulfo-β-D-glucopyranoside tridecasodium salt]
decrease of liver LDLR level after PCSK9 injection (liver LDLR): no decrease was observed
LDLR levels with respect to cells incubated without additives (LDLR in HepG2 cells): up to 12 times
LDLR levels, concentration dependence (LDLR in HepG2 cells): concentration dependent increased levels of LDLR

— patent US11173177B2, “Compounds for treatment of lipoprotein metabolism disorders” (Aarhus Universitet, priority 2016, dated 2021)
